Values quoted from earlier work as cited in patent publication US9700872B1, “Superpolar chromatographic stationary phases and extraction sorbents and their methods of synthesis” (THE FLORIDA INTERNATIONAL UNIVERSITY BOARD OF TRUSTEES, priority 2016, dated 2017).

Settings: octanol/water; Top 100 EPA Priority Pollutants (Table 2)

Structure (SMILES) | Log Kow
CCOC(=O)c1ccccc1C(=O)OCC [Diethyl phthalate] | 2.5
c1ccc2c(c1)Cc1ccccc1-2 [Fluorene] | 4.2
Clc1ccc(Oc2ccccc2)cc1 [4-Chlorophenyl phenyl ether] | 4.3
CCCCC(CC)COC(=O)c1ccccc1C(=O)OCC(CC)CCCC (centres unmarked) [Bis(2-Ethylhexyl)phthalate] | 7.4
CC1=CC(=O)CC(C)(C)C1 [Isophorone] | 1.6
Brc1ccc(Oc2ccccc2)cc1 [4-Bromophenyl phenyl ether] | 4.4
Clc1ccccc1Cl [1,2-Dichlorobenzene] | 3.4
C1=Cc2cccc3cccc1c23 [Acenaphthylene] | 3.7
CCCl [Chloroethane] | 1.2
c1ccc2c(c1)ccc1ccccc12 [Phenanthrene] | 4.5
Clc1ccccc1 [Chlorobenzene] | 2.84
c1cc2c3c(cccc3c1)CC2 [Acenaphthene] | 3.9
c1ccc2cc3ccccc3cc2c1 [Anthracene] | 4.4
CCCCOC(=O)c1ccccc1C(=O)OCCCC [Di-N-butyl phthalate] | 4.7
c1ccc2c(c1)cc1ccc3cccc4ccc2c1c34 [Benzo(a)pyrene] | 6

Same assay, conditions: octanol/water; exemplary polyhydroxy molecules (Table 1)

Structure (SMILES) | Log Kow
OC[C@H]1O[C@H](O[C@]2(CCl)O[C@H](CCl)[C@@H](O)[C@@H]2O)[C@H](O)[C@@H](O)[C@H]1Cl [Sucralose] | −1.5
OC[C@@H](O)[C@@H](O)[C@H](O)[C@@H](O)CO [Sorbitol] | −3.1
